{
  "source": "PubChem BioAssay AID2060503",
  "about": "(Molecular Pharmacology Branch, DTP, NCI, 2025);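 also: spheroids exposed to agents for 7 days before readout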;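 as to viability, T/C: percent viability relative to DMSO vehicle control taken as 100%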",
  "tested_on": "817829-284-R-J1-PDC complex spheroids, viability",
  "test": "Anticancer human tumor 817829-284-R-J1-PDC patient-derived colon adenocarcinoma cell line growth inhibition [GQUAD]",
  "details": "for IC50: curve of first compound; for viability, T/C: stronger effect = lower value",
  "outline": "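Multi-cell-type spheroids of tumor cells with HUVEC and mesenchymal stem cells, treated with drug combinations. Concentrations descend in half-log steps from near clinical Cmax, or from 10 microM where Cmax is unknown; viability read-out.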",
  "key": {"[1]": {"details": "second compound 0.0316 µM, first compound 0.0316 µM"}, "[2]": {"details": "second compound 0.0316 µM, first compound 0.1 µM"}, "[3]": {"details": "second compound 0.0316 µM, first compound 0.316 µM"}, "[4]": {"details": "second compound 0.0316 µM, first compound 1 µM"}, "[5]": {"details": "second compound 0.0316 µM, first compound 3.16 µM"}, "[6]": {"details": "second compound 0.0316 µM, first compound 10 µM"}, "[7]": {"details": "second compound 0.1 µM, first compound 0.0316 µM"}, "[8]": {"details": "second compound 0.1 µM, first compound 0.1 µM"}, "[9]": {"details": "second compound 0.1 µM, first compound 0.316 µM"}, "[10]": {"details": "second compound 0.1 µM, first compound 1 µM"}, "[11]": {"details": "second compound 0.1 µM, first compound 3.16 µM"}, "[12]": {"details": "second compound 0.1 µM, first compound 10 µM"}, "[13]": {"details": "second compound 0.316 µM, first compound 0.0316 µM"}, "[14]": {"details": "second compound 0.316 µM, first compound 0.1 µM"}, "[15]": {"details": "second compound 0.316 µM, first compound 0.316 µM"}, "[16]": {"details": "second compound 0.316 µM, first compound 1 µM"}, "[17]": {"details": "second compound 0.316 µM, first compound 3.16 µM"}, "[18]": {"details": "second compound 0.316 µM, first compound 10 µM"}, "[19]": {"details": "second compound 1 µM, first compound 0.0316 µM"}, "[20]": {"details": "second compound 1 µM, first compound 0.1 µM"}, "[21]": {"details": "second compound 1 µM, first compound 0.316 µM"}, "[22]": {"details": "second compound 1 µM, first compound 1 µM"}, "[23]": {"details": "second compound 1 µM, first compound 3.16 µM"}, "[24]": {"details": "second compound 1 µM, first compound 10 µM"}, "[25]": {"details": "second compound 3.16 µM, first compound 0.0316 µM"}, "[26]": {"details": "second compound 3.16 µM, first compound 0.1 µM"}, "[27]": {"details": "second compound 3.16 µM, first compound 0.316 µM"}, "[28]": {"details": "second compound 3.16 µM, first compound 1 µM"}, "[29]": {"details": "second compound 3.16 µM, first compound 3.16 µM"}, "[30]": {"details": "second compound 3.16 µM, first compound 10 µM"}, "[31]": {"details": "second compound 10 µM, first compound 0.0316 µM"}, "[32]": {"details": "second compound 10 µM, first compound 0.1 µM"}, "[33]": {"details": "second compound 10 µM, first compound 0.316 µM"}, "[34]": {"details": "second compound 10 µM, first compound 1 µM"}, "[35]": {"details": "second compound 10 µM, first compound 3.16 µM"}, "[36]": {"details": "second compound 10 µM, first compound 10 µM"}},
  "data": [
    {"smiles": "O=C(NO)c1cnc(N2CCN(S(=O)(=O)c3ccc4ccccc4c3)CC2)nc1", "note": "+ CN(C)c1ccc(Nc2c3ccc(NC(=O)CCN4CCCC4)cc3nc3cc(NC(=O)CCN4CCCC4)ccc23)cc1", "values": [
      {"measurement": "IC50", "setting": "second compound 0.0316 µM", "value": 174, "unit": "nM"},
      {"measurement": "IC50", "setting": "second compound 0.1 µM", "value": 184, "unit": "nM"},
      {"measurement": "IC50", "setting": "second compound 0.316 µM", "value": 189, "unit": "nM"},
      {"measurement": "IC50", "setting": "second compound 1 µM", "value": 182, "unit": "nM"},
      {"measurement": "IC50", "setting": "second compound 3.16 µM", "value": 170, "unit": "nM"},
      {"measurement": "IC50", "setting": "second compound 10 µM", "value": 82.8, "unit": "nM"},
      {"measurement": "viability, T/C", "setting": "[1]", "value": 107, "unit": "%"},
      {"measurement": "viability, T/C", "setting": "[2]", "value": 91.7, "unit": "%"},
      {"measurement": "viability, T/C", "setting": "[3]", "value": 5.47, "unit": "%"},
      {"measurement": "viability, T/C", "setting": "[4]", "value": 0.25, "unit": "%"},
      {"measurement": "viability, T/C", "setting": "[5]", "value": 0.18, "unit": "%"},
      {"measurement": "viability, T/C", "setting": "[6]", "value": 0.2, "unit": "%"},
      {"measurement": "viability, T/C", "setting": "[7]", "value": 116, "unit": "%"},
      {"measurement": "viability, T/C", "setting": "[8]", "value": 101, "unit": "%"},
      {"measurement": "viability, T/C", "setting": "[9]", "value": 4.32, "unit": "%"},
      {"measurement": "viability, T/C", "setting": "[10]", "value": 0.23, "unit": "%"},
      {"measurement": "viability, T/C", "setting": "[11]", "value": 0.12, "unit": "%"},
      {"measurement": "viability, T/C", "setting": "[12]", "value": 0.17, "unit": "%"},
      {"measurement": "viability, T/C", "setting": "[13]", "value": 98.8, "unit": "%"},
      {"measurement": "viability, T/C", "setting": "[14]", "value": 111, "unit": "%"},
      {"measurement": "viability, T/C", "setting": "[15]", "value": 5.37, "unit": "%"},
      {"measurement": "viability, T/C", "setting": "[16]", "value": 0.23, "unit": "%"},
      {"measurement": "viability, T/C", "setting": "[17]", "value": 0.11, "unit": "%"},
      {"measurement": "viability, T/C", "setting": "[18]", "value": 0.15, "unit": "%"},
      {"measurement": "viability, T/C", "setting": "[19]", "value": 103, "unit": "%"},
      {"measurement": "viability, T/C", "setting": "[20]", "value": 99.4, "unit": "%"},
      {"measurement": "viability, T/C", "setting": "[21]", "value": 4.41, "unit": "%"},
      {"measurement": "viability, T/C", "setting": "[22]", "value": 0.21, "unit": "%"},
      {"measurement": "viability, T/C", "setting": "[23]", "value": 0.1, "unit": "%"},
      {"measurement": "viability, T/C", "setting": "[24]", "value": 0.13, "unit": "%"},
      {"measurement": "viability, T/C", "setting": "[25]", "value": 110, "unit": "%"},
      {"measurement": "viability, T/C", "setting": "[26]", "value": 89.4, "unit": "%"},
      {"measurement": "viability, T/C", "setting": "[27]", "value": 4.33, "unit": "%"},
      {"measurement": "viability, T/C", "setting": "[28]", "value": 0.21, "unit": "%"},
      {"measurement": "viability, T/C", "setting": "[29]", "value": 0.12, "unit": "%"},
      {"measurement": "viability, T/C", "setting": "[30]", "value": 0.15, "unit": "%"},
      {"measurement": "viability, T/C", "setting": "[31]", "value": 102, "unit": "%"},
      {"measurement": "viability, T/C", "setting": "[32]", "value": 39.8, "unit": "%"},
      {"measurement": "viability, T/C", "setting": "[33]", "value": 2.02, "unit": "%"},
      {"measurement": "viability, T/C", "setting": "[34]", "value": 0.23, "unit": "%"},
      {"measurement": "viability, T/C", "setting": "[35]", "value": 0.19, "unit": "%"},
      {"measurement": "viability, T/C", "setting": "[36]", "value": 0.19, "unit": "%"}
    ]},
    {"smiles": "COc1cccc2c1C(=O)c1c(O)c3c(c(O)c1C2=O)CC(O)(C(=O)CO)CC3OC1CC(N)C(O)C(C)O1", "note": "(centres undefined) + CN(C)c1ccc(Nc2c3ccc(NC(=O)CCN4CCCC4)cc3nc3cc(NC(=O)CCN4CCCC4)ccc23)cc1", "values": [
      {"measurement": "IC50", "setting": "second compound 0.0316 µM", "value": 95.5, "unit": "nM"},
      {"measurement": "IC50", "setting": "second compound 0.1 µM", "value": 94.5, "unit": "nM"},
      {"measurement": "IC50", "setting": "second compound 0.316 µM", "value": 93.4, "unit": "nM"},
      {"measurement": "IC50", "setting": "second compound 1 µM", "value": 96.4, "unit": "nM"},
      {"measurement": "IC50", "setting": "second compound 3.16 µM", "value": 91, "unit": "nM"},
      {"measurement": "IC50", "setting": "second compound 10 µM", "value": 95.7, "unit": "nM"},
      {"measurement": "viability, T/C", "setting": "[1]", "value": 80.9, "unit": "%"},
      {"measurement": "viability, T/C", "setting": "[2]", "value": 39.6, "unit": "%"},
      {"measurement": "viability, T/C", "setting": "[3]", "value": 41, "unit": "%"},
      {"measurement": "viability, T/C", "setting": "[4]", "value": 10, "unit": "%"},
      {"measurement": "viability, T/C", "setting": "[5]", "value": 0.59, "unit": "%"},
      {"measurement": "viability, T/C", "setting": "[6]", "value": 0.64, "unit": "%"},
      {"measurement": "viability, T/C", "setting": "[7]", "value": 79.7, "unit": "%"},
      {"measurement": "viability, T/C", "setting": "[8]", "value": 43.4, "unit": "%"},
      {"measurement": "viability, T/C", "setting": "[9]", "value": 35.5, "unit": "%"},
      {"measurement": "viability, T/C", "setting": "[10]", "value": 10.1, "unit": "%"},
      {"measurement": "viability, T/C", "setting": "[11]", "value": 0.47, "unit": "%"},
      {"measurement": "viability, T/C", "setting": "[12]", "value": 0.28, "unit": "%"},
      {"measurement": "viability, T/C", "setting": "[13]", "value": 82.7, "unit": "%"},
      {"measurement": "viability, T/C", "setting": "[14]", "value": 37.8, "unit": "%"},
      {"measurement": "viability, T/C", "setting": "[15]", "value": 40.4, "unit": "%"},
      {"measurement": "viability, T/C", "setting": "[16]", "value": 9.85, "unit": "%"},
      {"measurement": "viability, T/C", "setting": "[17]", "value": 0.54, "unit": "%"},
      {"measurement": "viability, T/C", "setting": "[18]", "value": 0.34, "unit": "%"},
      {"measurement": "viability, T/C", "setting": "[19]", "value": 83.1, "unit": "%"},
      {"measurement": "viability, T/C", "setting": "[20]", "value": 38.4, "unit": "%"},
      {"measurement": "viability, T/C", "setting": "[21]", "value": 40.9, "unit": "%"},
      {"measurement": "viability, T/C", "setting": "[22]", "value": 10.8, "unit": "%"},
      {"measurement": "viability, T/C", "setting": "[23]", "value": 0.57, "unit": "%"},
      {"measurement": "viability, T/C", "setting": "[24]", "value": 0.34, "unit": "%"},
      {"measurement": "viability, T/C", "setting": "[25]", "value": 91.9, "unit": "%"},
      {"measurement": "viability, T/C", "setting": "[26]", "value": 37.6, "unit": "%"},
      {"measurement": "viability, T/C", "setting": "[27]", "value": 33.8, "unit": "%"},
      {"measurement": "viability, T/C", "setting": "[28]", "value": 9.5, "unit": "%"},
      {"measurement": "viability, T/C", "setting": "[29]", "value": 0.71, "unit": "%"},
      {"measurement": "viability, T/C", "setting": "[30]", "value": 0.36, "unit": "%"},
      {"measurement": "viability, T/C", "setting": "[31]", "value": 85.8, "unit": "%"},
      {"measurement": "viability, T/C", "setting": "[32]", "value": 39, "unit": "%"},
      {"measurement": "viability, T/C", "setting": "[33]", "value": 37.6, "unit": "%"},
      {"measurement": "viability, T/C", "setting": "[34]", "value": 12.3, "unit": "%"},
      {"measurement": "viability, T/C", "setting": "[35]", "value": 1, "unit": "%"},
      {"measurement": "viability, T/C", "setting": "[36]", "value": 0.33, "unit": "%"}
    ]}
  ]
}
